# From US20040191327A1, “Method of treating and/or preventing asthma using natural compound luteolin” (Council of Scientific and Industrial Research, priority 2003, published 2004)
# Values joined by “and” are separate entries in the source; they are usually repeats but may differ in a detail not shown here. Equal entries are not always repeated. Marks after values point to notes of the source that are not given here.
# Legend:
# OVA-sensitized mice [1] = test: Mouse model of asthma, effective oral dose; assay type: in vivo
# Protocol: In this context, Luteolin was tested on mouse model of asthma. Mice were sensitized with intraperitoneal and aerosol inhalation of OVA to develop the characteristic features of asthma such as allergen induced early airway response (EAR) and late airway response (LAR). These asthmatic features were characterized by measuring airway calibre in the term of specific airway conductance (SGaw) by a non-invasive technique, dual-chamber whole body plethysmography. After developing the characteristic features (EAR and LAR) in mouse, the compound, Luteolin was given orally during whole sensitization period to test the preventive effect on the development of asthmatic features. To examine the therapeutic effect of Luteolin on the asthmatic features, it was fed for one week to mice after sensitization and confirming their asthmatic features.
# (§1) To study the preventive effect, Luteolin (dissolved in 50% hydro-alcohol) (Sigma Chemicals Co. St Louis, Mo., USA) (0.1, 1.0, and 10.0 mg/kg body weight, 20 □| volume) or vehicle (i.e., 50% hydro-alcohol) was administered orally to each group of mice daily, starting from the first day of sensitization (FIG. 2A). To study the curative effect, mice were first sensitized as described before (Example 1) followed by oral Luteolin (1.0 mg/kg body weight) treatment daily from day 26 to 32 (FIG. 2B).
# IL-4 = IL-4 level in BALF by ELISA; assay type: in vivo, mouse; settings: mean±SEM, n=6
# Protocol: (§2) After testing the compound for the preventive as well as for therapeutic effects in intact conscious mice, mice were sacrificed for collecting the blood and bronchoalveolar lavage (BAL) fluid to measure the levels of IgE, cytokines IL-4, IL-5 and IFN-γ. Ovalbumin specific IgE levels in the sera and the levels of IL-4, IL-5 and IFN-γ in the BAL fluid were measured by enzyme linked ImmunoSorbent assay (ELISA) kits.
# (§3) Experiments were performed with six groups of mice (n=6) as described in FIG. 3 legend and the levels of IFN-γ, IL-4 and IL-5 were measured in the BALF. The values are a mean±SEM of six mice in each group. Mann Whitney U test was used to determine the significant differences between the sensitized- and Luteolin treated groups. * p <0.05, ** p<0.01. ‘a’ denotes treatment during sensitization; ‘b’ denotes treatment after sensitization.
# (§4) Mice were immunized/sensitized with or without (sham-sensitized) 0.2 ml of 10 μg ovalbumin (Sigma Chemicals Co. St Louis, Mo., USA) and 2 mg aluminum hydroxide intraperitoneally on days 0,7 and 14 using a modified protocol previously described by Sakai et al (FIG. 2). Five days after the final i.p injection, the mice were subjected to aerosolized OVA (5%) or phosphate buffered saline (PBS) (for sham-sensitized group) inhalation for 20 minutes daily beginning from day 19 to day 23 (FIG. 2). Mice were placed in a plexiglas chamber (20×20×20 cm dimensions) and exposed to an aerosol generated from a nebulizer (de Vilbiss, USA) with airflow of 41/min.
# as §1
# (§5) To investigate the levels of IL-4 and IFN-[…] in the BALF, we measured the cytokine levels by ELISA as per manufacturer's protocol, and compared between the different groups. […] In the Luteolin-treated group, there was an increase in the ratio of IFN-γ/IL-4 (25.8±2.7, 15.5±1.3, 13.2±2.5 following doses of 0.1, 1.0 and 10.0 mg/kg Luteolin, respectively as compared to 0.48±0.1 in sensitized, vehicle treated mice) (p<0.01) (Table 1). […] This increase in the IFN-γ/IL-4 ratio was due to the increase in the IFN-γ levels. We also measured the concentration of IL-5 in the BALF by ELISA in the different groups (Table 1). […]
# OVA-sensitized mice [2] = test: OVA-induced airway constriction (fall of specific airway conductance, SGaw) in mouse model of asthma; assay type: in vivo
# Protocol: Protocol A: The mice were given three i.p. Injections of 10 μg ovalbumin adsorbed on 2 mg alum on 0, 7 and 14 days and then subjected to OVA aerosol inhalation for five consecutive days from 19th to 23rd day of the experiment. On 24th day SGaw measurements were performed after OVA challenge in the plethysmograph and airway reactivity to methacholine was measured after 24 hours. In case of curative study (Protocol B), sensitized mice were fed with 1 mg/kg body weight of Luteolin for one week (days 26-32) and the effects on SGaw and airway reactivity were evaluated. Mice were immunized/sensitized with or without (sham-sensitized) 0.2 ml of 10 μg ovalbumin (Sigma Chemicals Co. St Louis, Mo., USA) and 2 mg aluminum hydroxide intraperitoneally on days 0,7 and 14 using a modified protocol previously described by Sakai et al (FIG. 2). Five days after the final i.p injection, the mice were subjected to aerosolized OVA (5%) or phosphate buffered saline (PBS) (for sham-sensitized group) inhalation for 20 minutes daily beginning from day 19 to day 23 (FIG. 2). Mice were placed in a plexiglas chamber (20×20×20 cm dimensions) and exposed to an aerosol generated from a nebulizer (de Vilbiss, USA) with airflow of 41/min. To study the preventive effect, Luteolin (dissolved in 50% hydro-alcohol) (Sigma Chemicals Co. St Louis, Mo., USA) (0.1, 1.0, and 10.0 mg/kg body weight, 20 □| volume) or vehicle (i.e., 50% hydro-alcohol) was administered orally to each group of mice daily, starting from the first day of sensitization (FIG. 2A). […] Airway calibre was measured in the term of specific airway conductance (SGaw) using a dual-chamber whole body plethysmograph similar to the method for guinea pigs (Agrawal, 1981) with some modifications. […] The value of SGaw was calculated as described by Agrawal (1981). Airway constriction of mice was determined in terms of fall of SGaw due to OVA aerosol challenge. SGaw was measured as described in Example 3. […]
# IL-5 = IL-5 level in BALF by ELISA; assay type: in vivo, mouse; settings: mean±SEM
# Protocol: as §2, §3, §4, §1, §5
# OVA-specific IgE = OVA-specific IgE levels in serum by ELISA; assay type: in vivo, mouse
# Protocol: as §2, §4, §1
# OVA-specific IgE levels in the serum were measured by enzyme linked ImmunoSorbent assay (ELISA), To investigate the effect of Luteolin on serum IgE levels, we compared the levels of the OVA-specific IgE in serum of mice treated with vehicle or with Luteolin (0.1, 1.0 and 10.0 mg/kg) during sensitization and in sham-sensitized mice.
# IFN-γ = IFN-γ level in BALF by ELISA; assay type: in vivo, mouse; settings: mean±SEM, n=6
# Protocol: as §2, §3, §4, §1, §5
# OVA-sensitized mice [3] = test: Airway reactivity to methacholine (MCh PD35) in mouse model of asthma; assay type: in vivo
# Protocol: Protocol A: The mice were given three i.p. Injections of 10 μg ovalbumin adsorbed on 2 mg alum on 0, 7 and 14 days and then subjected to OVA aerosol inhalation for five consecutive days from 19th to 23rd day of the experiment. On 24th day SGaw measurements were performed after OVA challenge in the plethysmograph and airway reactivity to methacholine was measured after 24 hours. In case of curative study (Protocol B), sensitized mice were fed with 1 mg/kg body weight of Luteolin for one week (days 26-32) and the effects on SGaw and airway reactivity were evaluated.
# as §4, §1
# Airway reactivity to methacholine was determined by measuring the concentration of inhaled methacholine that produced 35% fall in SGaw (MCh PD35) in intact mouse sitting in the body plethysmograph. Aerosol of different concentrations of methacholine (3.1, 6.25, 12.5, 50, 100 mg/ml) were given for 60 seconds. MCh PD35 values were determined in sham-sensitized, sensitized and Luteolin treated mice during and after sensitization. […] Treatment with Luteolin (0.1, 1.0 and 10.0 mg/kg during sensitization) markedly attenuated the development of airway hyperreactivity to methacholine. MCh PD35 values increased following Luteolin treatment to 72.1±1.9, 42.4±4.2 and 10.9±4.8 mg/ml, respectively (p<0.01).
# [4] = 10.0 mg/kg during sensitization
# [5] = 1.0 mg/kg oral for one week after sensitization
# [6] = 1.0 mg/kg oral during sensitization
# [7] = 10.0 mg/kg oral during sensitization
structure (smiles),measurement,setting,value
O=c1cc(-c2ccc(O)c(O)c2)oc2cc(O)cc(O)c12 [Luteolin],effective dose,OVA-sensitized mice [1],1 mg/kg body weight
same,IL-4,IL-4; 0.1 mg/kg during sensitization,136 ± 4.0 pg/mL
same,IL-4,IL-4; 1.0 mg/kg after sensitization,130 ± 5.0 pg/mL
same,IL-4,IL-4; 1.0 mg/kg during sensitization,169 ± 13.9 pg/mL
same,IL-4,IL-4; [4],128 ± 8.8 pg/mL
same,decrease in SGaw after OVA challenge,"OVA-sensitized mice [2]; 0.1 mg/kg oral daily during sensitization, sensitized vehicle mice 43% fall",7%
same,"OVA-induced decrease in SGaw, curative effect",OVA-sensitized mice [2]; [5],reverse OVA-induced decrease in SGaw
same,reduction of OVA-induced decrease in SGaw at higher doses,"OVA-sensitized mice [2]; 1.0 and 10.0 mg/kg oral daily during sensitization, versus 0.1 mg/kg",did not show any greater reduction
same,IL-5,"IL-5; 0.1 mg/kg during sensitization, n=6, 0.1 mg/kg",73.3±13.4 pg/ml and 73 ± 13.4* pg/ml
same,IL-5,"IL-5; 1.0 mg/kg after sensitization (one week), n=6, 1 mg/kg",43.7±2.3 pg/ml and 44 ± 2.3* pg/ml
same,IL-5,"IL-5; 1.0 mg/kg during sensitization, n=6, 1 mg/kg",43.3±3.5 pg/ml and 43 ± 3.5* pg/ml
same,IL-5,"IL-5; 10.0 mg/kg during sensitization, n=6",235 ± 66.4 pg/mL
same,OVA-specific serum IgE level,"OVA-specific IgE; 0.1 mg/kg oral during sensitization, sensitized vehicle 3.3±0.4",0.74±0.4
same,OVA-specific serum IgE level,OVA-specific IgE; [6],0.93±0.03
same,OVA-specific serum IgE level,OVA-specific IgE; 1.0 mg/kg oral for a week after sensitization,2.07±1
same,OVA-specific serum IgE level,OVA-specific IgE; [7],0.97±0.07
same,IFN-γ,IFN-γ; 0.1 mg/kg during sensitization,3533 ± 427** pg/ml
same,IFN-γ,IFN-γ; 1.0 mg/kg after sensitization,2067 ± 233.3** pg/ml
same,IFN-γ,IFN-γ; 1.0 mg/kg during sensitization,2652 ± 114.3** pg/ml
same,IFN-γ,IFN-γ; [4],1247 ± 412.5** pg/ml
same,MCh PD35,"OVA-sensitized mice [3]; 0.1 mg/kg oral during sensitization, sensitized 1.3±0.5, normal 97±1.0",72.1 ± 1.9 mg/mL
same,MCh PD35,OVA-sensitized mice [3]; [6],42.4 ± 4.2 mg/mL
same,MCh PD35,OVA-sensitized mice [3]; [5],increased significantly
same,MCh PD35,OVA-sensitized mice [3]; [7],10.9 ± 4.8 mg/mL
